Experimental data from patent US11634425B2, “Pharmaceutical compounds” (priority 2019, dated 2023).
Read-outs that look alike come from different tables or passages of the source.

Key:
RSV A2 = experiment: RSV plaque reduction assay; assay type: cell-based, respiratory syncytial virus (RSV); conditions: human respiratory syncytial virus, HepG2, Hep-G2 cells, mean of at least two experiments
Procedure, shortened: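 RSV A2 at 100 PFU/well was premixed with eight compound dilutions and added to confluent Hep-G2 monolayers for 2 h at 37 °C. Cells were then kept 2 days under a DMEM/2% FBS/0.8% CMC overlay containing compound. Immunostained plaques were counted relative to virus controls, and EC50 came from 4-parameter fits, averaged over at least two experiments.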

Cell cytotoxicity (CC50) = assay type: cell-based; conditions: human; mean of at least two experiments
Procedure, shortened: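 Values are means of ≥2 independent runs, rounded to whole units, from 4-parameter variable-slope curve fits. Toxicity measured in Hep-G2 cells run alongside RSV plaque-reduction assays.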

in vitro = in vitro ADME; conditions: microsomes, pH 7.4, 1 μM compound, 0.5 mg/mL protein, read-out: Liver Microsomal Stability t1/2
Protocol: Compounds were subjected to the following assays to investigate liver microsomal stability and hepatocyte stability.
Microsomal Incubation: Experimental Procedure
Pooled liver microsomes were purchased from a reputable commercial supplier and stored at −80° C. prior to use. Microsomes (final protein concentration 0.5 mg/mL), 0.1 M phosphate buffer pH 7.4 and test compound (final substrate concentration 1 μM; final DMSO concentration 0.25%) were pre-incubated at 37° C. prior to the addition of NADPH (final concentration 1 mM) to initiate the reaction. The final incubation volume was 50 μL. A control incubation was included for each compound tested where 0.1 M phosphate buffer pH 7.4 was added instead of NADPH (minus NADPH). Two control compounds were included with each species. All incubations were performed singularly for each test compound. Each compound was incubated for 0, 5, 15, 30 and 45 min. The control (minus NADPH) was incubated for 45 min only. The reactions were stopped by transferring incubate into acetonitrile at the appropriate time points, in a 1:3 ratio. The termination plates are centrifuged at 3,000 rpm for 20 min at 4° C. to precipitate the protein. Following protein precipitation, the sample supernatants were combined in cassettes of up to 4 compounds, internal standard added, and samples analysed by LC-MS/MS. From a plot of ln peak area ratio (compound peak area/internal standard peak area) against time, the gradient of the line was determined. Subsequently, half-life (t1/2) and intrinsic clearance (CLint) were calculated.

Row | SMILES | EC50 (RSV A2) | CC50 (Cell cytotoxicity (CC50)) | half-life at 1 μM (in vitro; dog) | half-life at 1 μM (in vitro; human) | half-life at 1 μM (in vitro; rat)
1 | O=C(N[C@H]1N=C(c2ccccc2)c2ccccc2NC1=O)c1c(-c2cccc(F)c2F)nn2cccnc12 [Example 43, 2-(2,3-Difluorophenyl)-N-[(3S)-2-oxo-5-phenyl-1,3-dihydro-1,4-benzodiazepin-3-yl]pyrazolo[1,5-a]pyrimidine-3-carboxamide] | 0.06 µM | > 25 µM | 0.97 h | 3.35 h | 41.5 h
2 | CN1CC(Oc2ccc3nc(-c4ccccc4F)c(C(=O)N[C@H]4N=C(c5ccccc5)c5cccc(F)c5NC4=O)n3n2)C1 [Example 108, N-[(3S)-9-Fluoro-2-oxo-5-phenyl-1,3-dihydro-1,4-benzodiazepin-3-yl]-2-(2-fluorophenyl)-6-(1-methylazetidin-3-yl)oxyimidazo[1,2-b]pyridazine-3-carboxamide] | 0.084 µM | 21.9 µM | 2.88 h | 1.3 h | 1.14 h
3 | Cc1cnc2c(C(=O)N[C@H]3N=C(c4ccccc4)c4cccc(F)c4NC3=O)c(-c3ccccc3F)nn2c1 [Example 34, N-[(3S)-9-Fluoro-2-oxo-5-phenyl-1,3-dihydro-1,4-benzodiazepin-3-yl]-2-(2-fluorophenyl)-6-methylpyrazolo[1,5-a]pyrimidine-3-carboxamide] | 0.023 µM | > 25 µM | 1.44 h | > 2.33 h | 1.08 h
4 | COc1ccc2nc(-c3cncc(C)c3)c(C(=O)N[C@H]3N=C(c4ccccc4)c4cccc(F)c4NC3=O)n2n1 [Example 118, N-[(3S)-9-fluoro-2-oxo-5-phenyl-1,3-dihydro-1,4-benzodiazepin-3-yl]-6-methoxy-2-(5-methylpyridin-3-yl)imidazo[1,2-b]pyridazine-3-carboxamide] | 0.059 µM | > 25 µM | 2.38 h | 1.98 h | 0.808 h
5 | Cc1ccc2nc(-c3ccc(F)cc3F)c(C(=O)N[C@H]3N=C(c4ccccc4)c4cccc(F)c4NC3=O)n2n1 [Example 91, 2-(2,4-Difluorophenyl)-N-[(3S)-9-fluoro-2-oxo-5-phenyl-1,3-dihydro-1,4-benzodiazepin-3-yl]-6-methylimidazo[1,2-b]pyridazine-3-carboxamide] | 0.017 µM | > 25 µM | 4.47 h | 1.68 h | 0.61 h
6 | O=C(N[C@H]1N=C(c2ccccc2)c2ccccc2NC1=O)c1c(-c2ccc(F)cc2F)nc2cccnn12 [Example 88, 2-(2,4-Difluorophenyl)-N-[(3S)-2-oxo-5-phenyl-1,3-dihydro-1,4-benzodiazepin-3-yl]imidazo[1,2-b]pyridazine-3-carboxamide] | 0.02 µM | > 25 µM | 1.27 h | > 2.33 h | 3.37 h
7 | O=C(N[C@H]1N=C(c2ccccc2)c2cccc(F)c2NC1=O)c1c(-c2ccc(C3CC3)nc2)nn2cccnc12 [Example 30, 2-(6-Cyclopropylpyridin-3-yl)-N-[(3S)-9-fluoro-2-oxo-5-phenyl-1,3-dihydro-1,4-benzodiazepin-3-yl]pyrazolo[1,5-a]pyrimidine-3-carboxamide] | 0.062 µM | > 25 µM | 4.88 h | 3.02 h | 4.43 h
8 | COc1ccc2nc(-c3ccccc3F)c(C(=O)N[C@H]3N=C(c4ccccc4)c4cccc(F)c4NC3=O)n2n1 [Example 115, N-[(3S)-9-fluoro-2-oxo-5-phenyl-1,3-dihydro-1,4-benzodiazepin-3-yl]-2-(2-fluorophenyl)-6-methoxyimidazo[1,2-b]pyridazine-3-carboxamide] | 0.034 µM | > 25 µM | 7.78 h | 2.5 h | 2.42 h
9 | O=C(N[C@H]1N=C(c2ccccc2)c2ccccc2NC1=O)c1c(-c2ccccc2)nn2cccnc12 [Example 12, N-[(3S)-2-oxo-5-phenyl-1,3-dihydro-1,4-benzodiazepin-3-yl]-2-phenylpyrazolo[1,5-a]pyrimidine-3-carboxamide] | 0.153 µM | > 25 µM | 3.87 h | 4.4 h | > 2.33 h
10 | O=C(N[C@H]1N=C(c2ccccc2)c2cccc(F)c2NC1=O)c1c(-c2cccc(F)c2F)nn2cccnc12 [Example 42, 2-(2,3-Difluorophenyl)-N-[(3S)-9-fluoro-2-oxo-5-phenyl-1,3-dihydro-1,4-benzodiazepin-3-yl]pyrazolo[1,5-a]pyrimidine-3-carboxamide] | 0.041 µM | > 14 µM | 12.2 h | > 2.33 h | 2.83 h
11 | CC(C)c1ccc(-c2nn3cccnc3c2C(=O)N[C@H]2N=C(c3ccccc3)c3cccc(F)c3NC2=O)cn1 [Example 59, 2-(6-Propan-2-ylpyridin-3-yl)-N-[(3S)-9-fluoro-2-oxo-5-phenyl-1,3-dihydro-1,4-benzodiazepin-3-yl]pyrazolo[1,5-a]pyrimidine-3-carboxamide] | 0.06 µM | > 25 µM | 1.51 h | 2.28 h | 1 h
12 | Cc1cncc(-c2nn3cccnc3c2C(=O)N[C@H]2N=C(c3ccccc3)c3cccc(F)c3NC2=O)c1 [Example 64, N-[(3S)-9-fluoro-2-oxo-5-phenyl-1,3-dihydro-1,4-benzodiazepin-3-yl]-2-(5-methylpyridin-3-yl)pyrazolo[1,5-a]pyrimidine-3-carboxamide] | 0.1 µM | > 18.8 µM | 3.58 h | 24.2 h | 1.7 h
13 | O=C(N[C@H]1N=C(c2ccccc2)c2ccccc2NC1=O)c1c(-c2ccccc2F)nn2ccc(N3CCOCC3)nc12 [Example 39, 2-(2-Fluorophenyl)-5-(morpholin-4-yl)-N-[(3S)-2-oxo-5-phenyl-2,3-dihydro-1H-1,4-benzodiazepin-3-yl]pyrazolo[1,5-a]pyrimidine-3-carboxamide] | 0.062 µM | > 25 µM | 0.255 h | 1.33 h | 0.538 h
14 | Cc1nn2cc(-c3ccoc3)cnc2c1C(=O)N[C@H]1N=C(c2ccccc2)c2cccc(F)c2NC1=O [Example 24, N-[(3S)-9-Fluoro-2-oxo-5-phenyl-1,3-dihydro-1,4-benzodiazepin-3-yl]-6-(furan-3-yl)-2-methylpyrazolo[1,5-a]pyrimidine-3-carboxamide] | 0.104 µM | > 25 µM | 1.98 h | > 2.33 h | 0.427 h
15 | O=C(N[C@H]1N=C(c2ccccc2)c2cccc(F)c2NC1=O)c1c(-c2ccccc2F)nc2ccc(Cl)nn12 [Example 116, 6-Chloro-N-[(3S)-9-fluoro-2-oxo-5-phenyl-1,3-dihydro-1,4-benzodiazepin-3-yl]-2-(2-fluorophenyl)imidazo[1,2-b]pyridazine-3-carboxamide] | 0.033 µM | > 25 µM | > 2.33 h | > 2.33 h | 0.957 h
16 | O=C(N[C@H]1N=C(c2ccccc2)c2cccc(F)c2NC1=O)c1c(-c2ccccc2)nc2cccnn12 [Example 107, N-[(3S)-9-fluoro-2-oxo-5-phenyl-1,3-dihydro-1,4-benzodiazepin-3-yl]-2-phenylimidazo[1,2-b]pyridazine-3-carboxamide] | 0.037 µM | > 25 µM | 3.12 h | 4.97 h | 1.46 h
17 | Cc1ccc2nc(-c3cccnc3)c(C(=O)N[C@H]3N=C(c4ccccc4)c4cccc(F)c4NC3=O)n2n1 [Example 96, N-[(3S)-9-fluoro-2-oxo-5-phenyl-1,3-dihydro-1,4-benzodiazepin-3-yl]-6-methyl-2-pyridin-3-ylimidazo[1,2-b]pyridazine-3-carboxamide] | 0.091 µM | > 25 µM | 3.78 h | 42.8 h | 0.468 h
18 | C[C@H]1COCCN1c1ccc(-c2nn3cccnc3c2C(=O)N[C@H]2N=C(c3ccccc3)c3cccc(F)c3NC2=O)cn1 (single isomer, unassigned) [Example 125, N-[(3S)-9-fluoro-2-oxo-5-phenyl-2,3-dihydro-1H-1,4-benzodiazepin-3-yl]-2-{6-[(3S*)-3-methylmorpholin-4-yl]pyridin-3-yl}pyrazolo[1,5-a]pyrimidine-3-carboxamide] | 0.087 µM | > 25 µM |  |  | 
